Measurements taken from US12377035B2, “Peptides for inhibiting cholinergic calcitonin gene-related peptide (CGRP) and acetylcholine (ACH) release or inhibiting sensitization-mediated by TRPV1-mediated excitability in sensory neurons and methods of use thereof” (AZIENDE CHIMICHE RIUNITE ANGELINI FRANCESCO—A.C.R.A.F. …, priority 2018, dated 2025).
Residues, ends and D or L forms follow the SMILES beside them. *: point of attachment. Palmitoyl = CCCCCCCCCCCCCCCC(=O)*

Key:
Format in all cases: cell-based
[1] = test system: CGRP induced-release on peptidergic sensory neurons (dorsal root ganglia); assay: Inhibition of capsaicin-induced CGRP release on cultured sensory neurons (CGRP EIA); conditions: 1 hour, 1 μM capsaicin 10 min
Description: The induction of the release of calcitonin-gene related peptide (CGRP) with capsaicin enables direct measurement of neuronal exocytosis (Meng J. et al., J. Cell. Sci. (2007) 15; 120(Pt 16):2864-74, and Meng J. et al., Mol. Neurobiol. (2014); 50(2):574-88).
The tested peptides were evaluated by measuring their capability of inhibiting CGRP induced-release on peptidergic sensory neurons. Dorsal root ganglia were seeded (50.000 cells/well) in a 96-well plate previously coated with poly-L-lysine and laminin. After 48 hours seeding, cells were incubated with Hank's Balanced salt solution containing peptides of invention at 20, 50 or 100 μM for 1 hour. Next, cells were stimulated for 10 min with 1 μM capsaicin at 37° C. Then, CGRP content was determined in supernatants using colorimetric based CGRP EIA (Spi-Bio Inc) following manufacturer's instructions. Absorbance measurements (405 nm) were standardized with regard to the maximum signal detected with capsaicin stimulation in vehicle treated cells. Inhibition values of CGRP release were calculated as percentages by considering maximum signal to capsaicin-induced release and minimum as non-stimulated cells. Table D details inhibition values of […] obtained for the peptides of invention.

[2] = test system: acetylcholine release, human neuroblastoma cell line differentiated to cholinergic neuronal phenotype; assay: Inhibition of KCl-induced acetylcholine release in a neuroblastoma cell line (Amplex Red); conditions: 50 mM KCl
Description: To determine the compound of the invention effects on acetylcholine release, a human neuroblastoma cell line (50.000 cells/well) was used. Cells were differentiated to cholinergic neuronal phenotype for 4 days. Then, cells were pre-incubated for 60 minutes with the compounds (between 0.1 and 100 μM) as acetyl- or palmitoyl-form and conjugated with trifluoroacetate (TFA) or acetate salt. Afterwards, acetylcholine release was induced by membrane depolarization evoked by 15 minutes incubation with 50 mM KCl. Acetylcholine level in supernatants was quantified by using Amplex® Red Acetylcholine Assay Kit (Thermofisher) following manufacturer's instructions. […] Fluorescence (Ex 530 nm/Em 590 nm) was measured in FluorStar equipment. Acetylcholine content was normalized to the total protein content using BCA assay (Pierce) following manufacturer's instructions. Fluorescence measurements were normalized to the maximum signal detected with KCl stimulation in vehicle treated cells. Vesicle exocytosis disruption by the compounds of the invention lead to a decrease of acetylcholine release (Table E).

[3] = test system: human epidermal keratinocytes (HEKa); assay: MTT cell viability assay on epidermal keratinocytes; conditions: for % inhibition cell viability: HEKa, 24 hours
Description: (§1) This example evaluated effects of the peptides of invention on human epidermal keratinocytes and dermal fibroblasts. Cell viability was determined with the 3-(4,5-dimethyl-2-thiazolyl)-2,5-diphenyl-2H-tetrazolium bromide (MTT) assay. The MTT assay is a colorimetric reaction based on the capacity of the mitochondrial dehydrogenase enzyme to break and transform the tetrazolium rings of MTT. Epidermal keratinocytes (HEKa) were seeded in a previously coated 96 well-plate at 50-60% confluence in 100 μL of supplemented corresponding medium. Dermal fibroblasts (HDFa) were seeded in a 96 well-plate at 70% confluence in 100 μL supplemented medium. For both cell lines, 24 hours after seeding, medium was replaced by fresh supplemented medium containing peptides dissolved at concentration range between 0.1 and 200 μM. All test substances were incubated for 24 hours at 37° C. and 5% CO2. Afterwards, medium was replaced by 0.5 mg/ml of MTT solution for 4 hours in complete medium. Then, medium was carefully removed and 150 μL/well of DMSO were added to solubilize formazan crystals. Plate was protected from light, shaken for 60 seconds and optical density was measured at 570 nm with a reference filter of 620 nm. Table F details effects of peptides of invention on keratinocytes and fibroblasts cell viability expressed as percentage of inhibition.

[4] = test system: human dermal fibroblasts (HDFa); assay: MTT cell viability assay on dermal fibroblasts; conditions: for % inhibition cell viability: HDFa, 24 hours
Description: as §1

Ac-HYWRELQYR-NH2 [SEQ ID NO: 1 acetyl, HYWRELQYR]
% CGRP release inhibition ([1]; peptide 20 μM): 10.1% | % CGRP release inhibition ([1]; peptide 100 μM): 39.1% | % Ach release inhibition ([2]; Acetate salt, 1 μM): 27.9% | % Ach release inhibition ([2]; Acetate salt, 10 μM): 55.9% | % Ach release inhibition ([2]; TFA salt, 10 μM): 87.9% | % Ach release inhibition ([2]; TFA salt, 50 μM): 33.6% | % Ach release inhibition ([2]; TFA salt, 100 μM): 65.9% | % inhibition cell viability ([3]; 1 μM): −1.4% | % inhibition cell viability ([3]; 5 μM): 8.8% | % inhibition cell viability ([3]; 10 μM): 1.7% | % inhibition cell viability ([3]; 50 μM): 7.4% | % inhibition cell viability ([3]; 100 μM): 6.2% | % inhibition cell viability ([3]; 200 μM): 9.5% | effect on cell viability (in words) ([3]; human epidermal keratinocytes, up to 200 μM): did not modify cell viability | % inhibition cell viability ([4]; 1 μM): 0.2% | % inhibition cell viability ([4]; 5 μM): 9.7% | % inhibition cell viability ([4]; 10 μM): 33% | % inhibition cell viability ([4]; 50 μM): 3.9% | % inhibition cell viability ([4]; 100 μM): 6.8% | % inhibition cell viability ([4]; 200 μM): 2.9% | effect on cell viability (in words) ([4]; dermal fibroblast, up to 200 μM): did not modify cell viability

CCCCCCCCCCCCCCCC(=O)N[C@@H](CCSC)C(=O)N[C@@H](CCC(N)=O)C(=O)N[C@H](C(=O)N[C@@H](Cc1c[nH]c2ccccc12)C(=O)N[C@@H](CC(C)C)C(=O)N[C@@H](CCCNC(=N)N)C(=O)N[C@@H](CCSC)C(=O)N[C@@H](Cc1c[nH]c2ccccc12)C(=O)N[C@H](C(=O)N[C@@H](CC(=O)O)C(=O)N[C@@H](Cc1ccc(O)cc1)C(=O)N[C@@H](CCCNC(=N)N)C(=O)N[C@@H](C)C(=O)N[C@H](C(N)=O)[C@@H](C)O)[C@@H](C)CC)C(C)C [SEQ ID NO: 2 palmitoyl, MQVWLRMWIDYRAT] (Palmitoyl-MQVWLRMWIDYRAT-NH2)
% CGRP release inhibition ([1]; peptide 20 μM): 35.5% | % CGRP release inhibition ([1]; peptide 50 μM): 53.9% | % Ach release inhibition ([2]; TFA salt, 5 μM): −46.1% | % Ach release inhibition ([2]; TFA salt, 10 μM): −35.1% | % Ach release inhibition ([2]; TFA salt, 50 μM): 20.6% | % inhibition cell viability ([3]; 0.1 μM): 12.1% | % inhibition cell viability ([3]; 0.5 μM): 20.9% | % inhibition cell viability ([3]; 1 μM): 25.6% | % inhibition cell viability ([3]; 5 μM): 36.9% | % inhibition cell viability ([3]; 10 μM): 36.5% | % inhibition cell viability ([3]; 50 μM): 32.5% | % inhibition cell viability ([4]; 0.1 μM): 30.8% | % inhibition cell viability ([4]; 0.5 μM): 42.9% | % inhibition cell viability ([4]; 1 μM): 45.8% | % inhibition cell viability ([4]; 5 μM): 47.3% | % inhibition cell viability ([4]; 10 μM): 47.1% | % inhibition cell viability ([4]; 50 μM): 35.3%
